Patent US10294202B2, “Pyrrolidinones as herbicides” (FMC Corporation, priority 2013, dated 2019)

Legend:
foxtail, green = experiment: Test C pre-/postemergence herbicide test; assay type: in vivo, Setaria viridis; conditions: Preemergence
Excerpt: Seeds of plant species selected from blackgrass (Alopecurus myosuroides), ryegrass, Italian (Italian ryegrass, Lolium multiflorum), wheat (winter wheat, Triticum aestivum), galium (catchweed bedstraw, Galium aparine), corn (Zea mays), crabgrass, large (large crabgrass, Digitaria sanguinalis), foxtail, giant (giant foxtail, Setaria faberii), johnsongrass (Sorghum halepense), lambsquarters (Chenopodium album), morningglory (Ipomoea coccinea), nutsedge, yellow (yellow nutsedge, Cyperus esculentus), pigweed (Amaranthus retroflexus), ragweed (common ragweed, Ambrosia elatior), soybean (Glycine max), barnyardgrass (Echinochloa crus-galli), oilseed rape (Brassica napus), waterhemp (common waterhemp, Amaranthus rudis), kochia (Kochia scoparia), oat, wild (wild oat, Avena fatua), surinam grass (Brachiaria decumbens), foxtail, green (green foxtail, Setaria viridis), goosegrass (Eleusine indica), bromegrass, downy (downy bromegrass, Bromus tectorum), nightshade (eastern black nightshade, Solanum ptycanthum), cocklebur (common cocklebur, Xanthium strumarium), cupgrass, woolly (woolly cupgrass, Eriochloa villosa), bermudagrass (Cynodon dactylon), sunflower, (common oilseed sunflower, Helianthus annuus), Russian thistle (Salsola kali) and velvetleaf (Abutilon theophrasti) were planted into a blend of loam soil and sand and treated preemergence with test chemicals formulated in a non-phytotoxic solvent mixture which included a surfactant. At the same time, plants selected from these crop and weed species and also barley (winter barley, Hordeum vulgare), […]), chickweed (common chickweed, Stellaria media), deadnettle (henbit deadnettle, Lamium amplexicaule), and canarygrass (littleseed canarygrass, Phalaris minor) were planted in pots containing Redi-Earth® planting medium (Scotts Company, 14111 Scottslawn Road, Marysville, Ohio 43041) comprising spaghnum peat moss, vermiculite, wetting agent and starter nutrients and treated with postemergence applications of test chemicals formulated in the same manner. Plants ranged in height from 2 to 18 cm (1- to 4-leaf stage) for postemergence treatments. Treated plants and controls were maintained in a greenhouse for 13 to 15 days, after which time all species were compared to controls and visually evaluated. Plant response ratings, summarized in Table C, are based on a scale of 0 to 100 where 0 is no effect and 100 is complete control. A dash (-) response means no test result.

bermudagrass = experiment: Test C pre-/postemergence herbicide test; assay type: in vivo, Cynodon dactylon; conditions: Preemergence
In short: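 Compound solutions contained surfactant in a non-phytotoxic solvent. These were sprayed onto pots of loam/sand sown with seeds, and onto young plants (2 to 18 cm, 1- to 4-leaf) in sphagnum peat–vermiculite mix. Visual injury scores (0 none, 100 complete control) were recorded after 13 to 15 days.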

wild poinsettia = experiment: Test E preemergence herbicide test; assay type: in vivo, Euphorbia heterophylla; set-up: key: 0 = no effect, 100 = complete control
Excerpt: (§1) Seeds of plant species selected from corn (Zea mays), soybean (Glycine max), velvetleaf (Abutilon theophrasti), lambsquarters (Chenopodium album), wild poinsettia (Euphorbia heterophylla), pigweed, palmer (palmer pigweed, Amaranthus palmeri), waterhemp (common waterhemp, Amaranthus rudis), surinam grass (Brachiaria decumbens), crabgrass, large (large crabgrass, Digitaria sanguinalis), crabgrass, Brazil (Brazilian crabgrass, Digitaria horizontalis), panicum, fall (fall panicum, Panicum dichotomiflorum), foxtail, giant (giant foxtail, Setaria faberii), foxtail, green (green foxtail, Setaria viridis), goosegrass (Eleusine indica), johnsongrass (Sorghum halepense), ragweed (common ragweed, Ambrosia elatior), barnyardgrass (Echinochloa crus-galli), sandbur (southern sandbur, Cenchrus echinatus), arrowleaf […] rhombifolia), ryegrass, Italian (Italian ryegrass, Lolium multiflorum), dayflower, VA (Virginia dayflower, Commelina virginica), field bindweed (Convolvulus arvensis), morningglory (Ipomoea coccinea), nightshade (eastern black nightshade, Solanum ptycanthum), kochia (Kochia scoparia), nutsedge, yellow (yellow nutsedge, Cyperus esculentus), cocklebur (common cocklebur, Xanthium strumarium), smartweed (ladysthumb smartweed, Polygonum Persicaria) and beggarticks (hairy beggarticks, Bidens pilosa), were planted into a silt loam soil and treated preemergence with test chemicals formulated in a non-phytotoxic solvent mixture which included a surfactant. Treated plants and controls were maintained in a greenhouse for 21 days, after which time all species were compared to controls and visually evaluated. Plant response ratings, summarized in Table E, are based on a scale of 0 to 100 where 0 is no effect and 100 is complete control. A dash (-) response means no test result.

foxtail, giant = experiment: Test E preemergence herbicide test; assay type: in vivo, Setaria faberii; set-up: key: 0 = no effect, 100 = complete control
Excerpt: as §1

ryegrass, Italian = experiment: Test E preemergence herbicide test; assay type: in vivo, Lolium multiflorum; set-up: key: 0 = no effect, 100 = complete control
Excerpt: as §1

windgrass = experiment: Test D pre-/postemergence herbicide test; assay type: in vivo, Apera spica-venti; conditions: for Plant response rating: Postemergence, Windgrass, scale 0 to 100; for Plant response rating, Windgrass: Preemergence, scale 0 to 100 (0 no effect, 100 complete control)
Excerpt: Seeds of plant species selected from bluegrass (annual bluegrass, Poa annua), blackgrass (Alopecurus myosuroides), canarygrass (littleseed canarygrass, Phalaris minor), chickweed (common chickweed, Stellaria media), galium (catchweed bedstraw, Galium aparine), bromegrass, downy (downy bromegrass, Bromus tectorum), field poppy (Papaver rhoeas), field violet (Viola arvensis), foxtail, green (green foxtail, Setaria viridis), deadnettle (henbit deadnettle, Lamium amplexicaule), ryegrass, Italian (Italian ryegrass, Lolium multiflorum), kochia (Kochia scoparia), lambsquarters (Chenopodium album), oilseed rape (Brassica napus), pigweed (Amaranthus retroflexus), chamomile (scentless chamomile, Matricaria inodora), Russian thistle (Salsola kali), speedwell (bird's-eye speedwell, Veronica persica), barley, spring (spring barley, Hordeum vulgare), wheat, spring (spring wheat, Triticum aestivum), buckwheat, wild (wild buckwheat, Polygonum convolvulus), mustard, wild (wild mustard, Sinapis arvensis), oat, wild (wild oat, Avena fatua), radish, wild (wild radish, Raphanus raphanistrum), […]), barley, winter (winter barley, Hordeum vulgare), and wheat, winter (winter wheat, Triticum aestivum) were planted into a silt loam soil and treated preemergence with test chemicals formulated in a non-phytotoxic solvent mixture which included a surfactant. At the same time, these species were planted in pots containing Redi-Earth® planting medium (Scotts Company, 14111 Scottslawn Road, Marysville, Ohio 43041) comprising spaghnum peat moss, vermiculite, wetting agent and starter nutrients and treated with postemergence applications of the test chemicals formulated in the same manner. Plants ranged in height from 2 to 18 cm (1- to 4-leaf stage). Treated plants and controls were maintained in a controlled growth environment for 7 to 21 days after which time all species were compared to controls and visually evaluated. Plant response ratings, summarized in Table D, are based on a scale of 0 to 100 where 0 is no effect and 100 is complete control. A dash (-) response means no test result.

[1] = 125 g ai/ha, scale 0 to 100 (0 no effect, 100 complete control)
[2] = 31 g ai/ha, scale 0 to 100 (0 no effect, 100 complete control)
[3] = 250 g ai/ha, scale 0 to 100 (0 no effect, 100 complete control)

SMILES	Plant response rating, Poinsettia, Wild (wild poinsettia; 16 g ai/ha)	Plant response rating, Poinsettia, Wild (wild poinsettia; 31 g ai/ha)	Plant response rating, Poinsettia, Wild (wild poinsettia; 62 g ai/ha)	Plant response rating, Poinsettia, Wild (wild poinsettia; 125 g ai/ha)	Plant response rating, Poinsettia, Wild (wild poinsettia; 250 g ai/ha)	Plant response rating, Foxtail, Giant (foxtail, giant; 16 g ai/ha)	Plant response rating, Foxtail, Giant (foxtail, giant; 31 g ai/ha)	Plant response rating, Foxtail, Giant (foxtail, giant; 62 g ai/ha)	Plant response rating, Foxtail, Giant (foxtail, giant; 125 g ai/ha)	Plant response rating, Foxtail, Giant (foxtail, giant; 250 g ai/ha)	Plant response rating, Ryegrass, Italian (ryegrass, Italian; 16 g ai/ha)	Plant response rating, Ryegrass, Italian (ryegrass, Italian; 31 g ai/ha)	Plant response rating, Ryegrass, Italian (ryegrass, Italian; 62 g ai/ha)	Plant response rating, Ryegrass, Italian (ryegrass, Italian; 125 g ai/ha)	Plant response rating, Ryegrass, Italian (ryegrass, Italian; 250 g ai/ha)	Plant response rating (windgrass; 31 g ai/ha)	Plant response rating, Windgrass (windgrass; 62 g ai/ha)	Plant response rating, Windgrass (windgrass; 125 g ai/ha)	Plant response rating, Windgrass (windgrass; 31 g ai/ha)	Plant response rating, Windgrass (windgrass; 250 g ai/ha)	further results
O=C1NCC(c2ccc(Cl)c(Cl)c2)C1C(=O)Nc1ccccc1F (racemic) [Compound 14]	0	0	15	20	25	0	0	0	10	90	0	0	0	0	0						Plant response rating, Foxtail, Green (foxtail, green; 62 g ai/ha, scale 0 to 100): 90; Plant response rating, Foxtail, Green (foxtail, green; [1]): 90; Foxtail, Green plant response rating (foxtail, green; [2]): 25; Plant response rating, Foxtail, Green (foxtail, green; [3]): 95; Plant response rating, Bermudagrass (bermudagrass; 62 g ai/ha, scale 0 to 100): 90; Plant response rating, Bermudagrass (bermudagrass; [1]): 95; Bermudagrass plant response rating (bermudagrass; [2]): 75; Plant response rating, Bermudagrass (bermudagrass; [3]): 95
O=C1NCC(c2ccc(C(F)(F)F)cc2)C1C(=O)Nc1cccc(F)c1F (racemic) [Compound 202]		0	0	25	65		35	50	95	98		0	0	25	50	0	85	90	65	90	Plant response rating (windgrass; 62 g ai/ha): 10; Plant response rating (windgrass; 125 g ai/ha): 35; Plant response rating (windgrass; 250 g ai/ha): 45
O=C1NCC(c2ccc(OC(F)F)cc2)C1C(=O)Nc1cccc(F)c1F (racemic) [Compound 350]		0	0	0	30		0	20	50	80		0	25	20	35						
O=C1NCC(c2ccc(C(F)(F)F)cc2)C1C(=O)Nc1cccc(F)c1F (centres unmarked) [Compound 80, N-(2,3-difluorophenyl)-2-oxo-4-[4-(trifluoromethyl)phenyl]-3-pyrrolidinecarboxamide]	0	0	0	0	0	0	65	75	80	90	0	0	0	45	60	0	20	75	5	90	Plant response rating (windgrass; 62 g ai/ha): 10; Plant response rating (windgrass; 125 g ai/ha): 10; Plant response rating (windgrass; 250 g ai/ha): 25
O=C1NC[C@H](c2cccc(C(F)(F)F)c2)[C@H]1C(=O)Nc1ccccc1F [Compound 204, (3R,4S)—N-(2-fluorophenyl)-2-oxo-4-[3-(trifluoromethyl)phenyl]-3-pyrrolidinecarboxamide]		0	0	20	20		50	95	95	98		0	0	25	30		65	85	50	95	
O=C1NC[C@H](c2cccc(C(F)(F)F)c2)[C@H]1C(=O)Nc1cccc(F)c1F [Compound 206]		0	10	0	25		90	98	98	98		0	35	80	65		75	90	75	90	
